Experimental findings from ChEMBL document CHEMBL1148562, “Synthesis and biological evaluation of novel pyrrolo[2,1-c][1,4]benzodiazepine prodrugs for use in antibody-directed enzyme prodrug therapy” (Bioorg Med Chem Lett, 2006) are described below.

The subject of data set [1] is LS174T. Description: Cytotoxicity against LS174T human colon cell line after continuous exposure. The class given is functional, cell-based.
Data set [2] deals with LS174T. The data set can be described thus: Cytotoxicity against LS174T human colon cell line after 1 hour of exposure. The class given is functional, cell-based.
Data set [3] is described as follows: Conversion of prodrug to parent in distilled water at 37 degC for 24 hrs. The class given is ADME. The following applies: buffer.
Data set [4] can be described thus: Conversion of prodrug to parent in distilled water at room temperature for 24 hrs. The class given is ADME. The following applies: buffer.

In the case of `COc1cc2c(cc1OC)C(=O)N1CCC[C@H]1C=N2`, the IC50 (commonly the point on the concentration scale where inhibition reaches its midpoint) in the data set on LS174T [1] is 1400 nM; in the data set on LS174T [2], 14000 nM.

As to `COc1cc2c(cc1OCCCOc1cc3c(cc1OC)C(=O)N1CCC[C@H]1[C@H](O)N3C(=O)OCc1ccc(NC(=O)N[C@@H](CCC(=O)O)C(=O)O)cc1)N(C(=O)OCc1ccc(NC(=O)N[C@@H](CCC(=O)O)C(=O)O)cc1)[C@@H](O)[C@@H]1CCCN1C2=O`, the outcome in data set [3] and in data set [4] was Active. Further, the 50% inhibitory concentration (IC50) amounted to 0.8 nM with LS174T [1] and 6 nM in the data set on LS174T [2].

On to `COc1cc2c(cc1OCCCOc1cc3c(cc1OC)C(=O)N1CCC[C@H]1C=N3)N=C[C@@H]1CCCN1C2=O` [DSB-120], for which the IC50 amounted to 0.47 nM in the data set on LS174T [1] and 13 nM in the data set on LS174T [2].

For the molecule `COc1cc2c(cc1OCCCOc1cc3c(cc1OC)C(=O)N1CCC[C@H]1[C@H](O)N3C(=O)OCc1ccc(OC(=O)N[C@@H](CCC(=O)O)C(=O)O)cc1)N(C(=O)OCc1ccc(OC(=O)N[C@@H](CCC(=O)O)C(=O)O)cc1)[C@@H](O)[C@@H]1CCCN1C2=O`, the Activity in data set [3] is 3%. Also, the 50% inhibitory concentration (IC50) in the data set with LS174T [1] is 21 nM; in the data set with LS174T [2], 200 nM. The Stability result in data set [4] is recorded as “Stable”.

For `COc1cc2c(cc1OC)N(C(=O)OCc1ccc(OC(=O)N[C@@H](CCC(=O)O)C(=O)O)cc1)[C@@H](O)[C@@H]1CCCN1C2=O`, the Activity in data set [3] is on record as 7%. The IC50 in the data set with LS174T [1] is 20000 nM; with LS174T [2] it was over 100000 nM. The Stability result in data set [4] is given as “Stable”.

With `COc1cc2c(cc1OC)N(C(=O)OCc1ccc(NC(=O)N[C@@H](CCC(=O)O)C(=O)O)cc1)[C@@H](O)[C@@H]1CCCN1C2=O`, the outcome in data set [3] and in data set [4] was Active. The IC50 was 1600 nM in the data set with LS174T [1] and 28000 nM with LS174T [2].
